# Measurements from patent US8993606B2, “Oral formulations for treating metal overload” (FerroKin BioSciences, Inc., priority 2011, dated 2015).
# Where a name gives a salt, the structure may show the parent alone.
# Tests used:
# Assay type in all cases: physicochemical
# [1] = Vapor stress experiments of amorphous magnesium salt, XRPD result; parameters: key: IS stands for insufficient solid
# From the text: The results of vapor stress experiments of amorphous (S)-3′-(OH)-DADFT-PE magnesium salt are given below in Table 37, wherein LC stands for low crystallinity and IS stands for insufficient solid.
# [2] = Vapor diffusion experiments of amorphous magnesium salt, XRPD result; conditions: antisolvent Hexanes
# From the text: The results of vapor diffusion experiments of amorphous (S)-3′-(OH)-DADFT-PE magnesium salt are given below in Table 38, wherein LC stands for low crystallinity.
# [3] = Aqueous solubility of salts; conditions: tromethamine salt; read-out: aqueous solubility
# From the text: Typically, oral formulations described herein facilitate solubilizing an active ingredient (e.g., a desazadesferrithiocin analog, salt or polymorph) at a desired amount or rate suitable for the treatment of metal overload. As used herein, the term “solubility” is generally intended to be synonymous with the term “aqueous solubility,” and refers to the ability, and the degree of the ability, of a compound to dissolve in water or an aqueous solvent or buffer, as might be found under physiological conditions. Aqueous solubility is, in and of itself, a useful quantitative measure, but it has additional utility as a correlate and predictor, with some limitations which will be clear to those of skill in the art, of oral bioavailability. Typically, a soluble compound is generally desirable, and the more soluble, the better. In liquid formulations, solubility is typically reported in mg/mL, but other measures, such as g/g, may be used. Solubilities typically deemed acceptable may range from 1 mg/mL into the hundreds or thousands of mg/mL.
# Solubility may be measured under varying conditions. For example, it may be measured under conditions similar to those found in the body, such as at gastric pH or at physiologic or near-physiologic pH. “Gastric pH” as used herein means about pH 1. […]
# [4] = Relative humidity stress (deliquescence, hygroscopicity); conditions: ~75% RH stress
# [5] = Dynamic vapor sorption/desorption (DVS)
# From the text: As described above, Form D was obtained via DVS experimentation with Form B, and Form B was generated with crystallization experiments using solvent mixtures containing methanol or water (e.g., MeOH/acetone, IPA/MeOH, heptane/MeOH, water (solvent grinding), water (antisolvent precipitation), or water (slurry at ambient)). DVS experimentation with Form B is as follows: Dynamic vapor sorption/desorption (DVS) data were collected on a VTI SGA-100 Vapor Sorption Analyzer. Sorption and desorption data were collected over a range of 5% to 95% relative humidity (RH) at 10% RH intervals under a nitrogen purge. Samples were not dried prior to analysis. Equilibrium criteria used for analysis were less than 0.0100% weight change in 5 minutes, with a maximum equilibration time of 3 hours if the weight criterion was not met. Data were not corrected for the initial moisture content of the sample. Sodium chloride and polyvinylpyrrolidine were used as calibration standards.
# [6] = Slurry experiments of magnesium salt form A, XRPD result; parameters: key: IS stands for insufficient solid
# From the text: The results of slurry experiments of (S)-3′-(OH)-DADFT-PE magnesium salt form A are given below in Table 36, wherein d stands for day, and IS stands for insufficient solid.
# [7] = Solvent grinding experiments of magnesium salt form A, XRPD result; conditions: solvent printed as — (none)
# From the text: The results of solvent grinding experiments of (S)-3′-(OH)-DADFT-PE magnesium salt form A are given below in Table 39, wherein LC stands for low crystallinity.
compound,measurement,setting,value
COCCOCCOCCOc1cccc(C2=N[C@@](C)(C(=O)[O-])CS2)c1O.COCCOCCOCCOc1cccc(C2=N[C@@](C)(C(=O)[O-])CS2)c1O.[Mg+2] [listing 1 of 2 here],XRPD Result,"[1]; solvent 1,4-Dioxane",IS
same,XRPD Result,[1]; solvent Acetone,A (LC)
same,XRPD Result,[1]; solvent DCM,IS
same,XRPD Result,[1]; solvent EtOAc,IS
same,XRPD Result,[1]; solvent MEK,IS
same,XRPD Result,[2]; solvent Acetone,A (LC)
same,XRPD Result,[2]; solvent DCM,A (LC)
same,XRPD Result,[2]; solvent EtOAc,A (LC)
same,XRPD Result,[2]; solvent MEK,Amorphous
same,XRPD Result,[2]; solvent THF,A (LC)
same,XRPD Result,[2]; solvent Toluene,A (LC)
"COCCOCCOCCOc1ccc(C2=N[C@@](C)(C(=O)O)CS2)c(O)c1 [Compound 2, Tromethamine salt of (S)-4′-(OH)-DADFT-PE]",solubility,[3],> 124 mg/mL
same,deliquescence upon RH stress,[4],no apparent deliquescence
same,weight gained,[5]; above ~65% RH,~50.3 wt %
same,water uptake,[5]; below ~65% RH,~1.5 wt %
"COCCOCCOCCOc1cccc(C2=N[C@@](C)(C(=O)O)CS2)c1O [Form B, (S)-3′-(OH)-DADFT-PE magnesium salt form B]",hygroscopicity (DVS data),[5],hygroscopic
same,weight loss upon desorption,[5],26.6%
same,additional weight gain during sorption step,"[5]; above 65% RH, without reaching equilibrium weight",21.2%
same,weight loss upon equilibrium,[5]; at 5% RH,10.8%
same,weight gain during sorption step,[5]; from 5% to 65% RH,5.7%
COCCOCCOCCOc1cccc(C2=N[C@@](C)(C(=O)[O-])CS2)c1O.COCCOCCOCCOc1cccc(C2=N[C@@](C)(C(=O)[O-])CS2)c1O.[Mg+2] [listing 2 of 2 here],XRPD Result,"[6]; solvent ACN/THF (1:1), 60° C./4 d",A + peaks
same,XRPD Result,"[6]; solvent EtOH/H2O (1:1), Ambient",IS
same,XRPD Result,"[6]; solvent EtOH/H2O (1:9), Ambient",IS
same,XRPD Result,"[6]; solvent Heptane/DCM (2:8), Ambient",A (LC)
same,XRPD Result,"[6]; solvent Heptane/EtOH (2:8), Ambient",Amorphous
same,XRPD Result,"[6]; solvent IPA, 60° C./4 d",Amorphous
same,XRPD Result,"[6]; solvent IPA/Acetone (1:1), Ambient",IS
same,XRPD Result,"[6]; solvent Water, 60° C./1 d",Amorphous
same,XRPD Result,[7],A (LC)
